How the values were obtained:
Ampc = Ampc (UniProt P24735); assay: Enzyme activity test (FC5 fluorescent substrate), AmpC; format: biochemical; details: enzyme 25 pM, substrate FC5 15 μM
Description: (§1) Compound stock solution: the compound was prepared as a 50 mM DMSO stock solution. […] After aliquoting, the compound stock solutions were stored at −20° C.
(§2) Preparation and storage of antibiotic substrate stock solution: antibiotic fluorescent substrate FC5 was synthesized internally and prepared as a 2 mM stock solution, which was stored at −20° C. after aliquoting.
(§3) Storage of β-lactamases: each […] was synthesized by GenScript Biotech Co., Ltd., and stored at −80° C. after aliquoting to avoid repeated freezing and thawing.
(§4) Preparation of enzyme activity reaction buffer: SBL buffer: PBS pH 7.4, 0.01% (v/v) Triton X-100; MBL buffer: 50 Mm HEPES in PBS pH 7.2, 1 μM ZnSO4, 1 μg/mL BSA, 0.010% v/v Triton X-100
(§5) a) The compound to be tested and buffer were taken out and warmed to room temperature.
(§6) b) Each compound was diluted with DMSO and buffer to the initial experimental concentration (Table 2), and then the compound was diluted 3-fold for a total of 10 concentrations.
(§7) c) Diluted compounds were added to wells 1 to 20 of a 384-well black plate at 2 replicate wells per concentration, 5 μL per well. 5 µL of DMSO was added to wells 21 to 24.
(§8) d) Each enzyme was diluted to the experimental concentration (Table 2) in SBL and MBL buffers, and finally 35 μL/well was added, with a total of 22 wells. 35 μL buffer was added to wells 23 to 24. Wells 21 to well 22 served as the maximum test values (Max), while wells 23 to 24 were designated as the minimum test values (Min).
(§9) e) The 384-well plate was centrifuged quickly and incubated for 10 minutes at room temperature.
(§10) f) The antibiotic substrate FC5 was diluted in buffer to the experimental concentration of each enzyme (Table 2).
(§11) g) The incubated 384-well plate was taken out and FC-5 was added to wells […]. The 384-well plate was centrifuged rapidly and promptly transferred to a microplate reader for reading.
(§12) h) The fluorescence intensity was measured at 355 nm excitation light/460 nm emission light in the microplate reader, and the fluorescence intensity was measured every three minutes for a total of 10 measurements.
(§13) Initial velocity of enzyme reaction V: Subtract the background reading (Min wells) without enzyme from each fluorescence intensity reading, and then perform on a linear regression analysis on each compound concentration group. The slope is the initial velocity of enzyme reaction (V) at each compound concentration.
(§14) Dose-effect curve and IC50 calculation of compounds: The initial velocity of enzyme reaction under the effect of each concentration of compounds was subjected to nonlinear regression fitting. The IC50 (half-maximal inhibitory concentration) of each compound was calculated using the formula […] (Vi: the initial velocity of enzyme reaction at each compound concentration; V0: initial velocity of enzyme reaction without the compound (Max wells). The software used was Graphpad prism 8.

CTX-M-15 = biological target: T1, CTX-M-15 (Escherichia coli, UniProt Q9EXV5); assay: Enzyme activity test (FC5 fluorescent substrate), CTX-M-15; format: biochemical; details: enzyme 45 pM, substrate FC5 50 μM
T1 construct: purchased GenScript Biotech Co., Ltd
Description: as §1, §2, §3, §4, §5, §6, §7, §8, §9, §10, §11, §12, §13, §14

VIM-1 = biological target: T2, VIM-1 (Pseudomonas aeruginosa, UniProt A0A0F7KYQ8); assay: Enzyme activity test (FC5 fluorescent substrate), VIM-1; format: biochemical; details: enzyme 70 pM, substrate FC5 10 μM
T2 construct: purchased GenScript Biotech Co., Ltd
Description: as §1, §2, §3, §4, §5, §6, §7, §8, §9, §10, §11, §12, §13, §14

OXA-48 = biological target: T3, OXA-48 (Klebsiella pneumoniae, UniProt Q6XEC0); assay: Enzyme activity test (FC5 fluorescent substrate), OXA-48; format: biochemical; details: enzyme 650 pM, substrate FC5 125 μM
T3 construct: purchased GenScript Biotech Co., Ltd
Description: as §1, §2, §3, §4, §5, §6, §7, §8, §9, §10, §11, §12, §13, §14

OXA-23 = biological target: T4, OXA-23 (Acinetobacter baumannii, UniProt Q9L4P2); assay: Enzyme activity test (FC5 fluorescent substrate), OXA-23; format: biochemical; details: enzyme 650 pM, substrate FC5 50 μM
T4 construct: purchased GenScript Biotech Co., Ltd
Description: as §1, §2, §3, §4, §5, §6, §7, §8, §9, §10, §11, §12, §13, §14

NDM-1 = biological target: T5, NDM-1 (Klebsiella pneumoniae, UniProt C7C422); assay: Enzyme activity test (FC5 fluorescent substrate), NDM-1; format: biochemical; details: enzyme 6 pM, substrate FC5 15 μM, MBL buffer
T5 construct: purchased GenScript Biotech Co., Ltd
Description: as §1, §2, §3, §4, §5, §6, §7, §8, §9, §10, §11, §12, §13, §14

VIM-2 = biological target: T6, VIM-2 (Escherichia coli, UniProt Q5U7L7); assay: Enzyme activity test (FC5 fluorescent substrate), VIM-2; format: biochemical; details: enzyme 25 pM, substrate FC5 20 μM
T6 construct: purchased GenScript Biotech Co., Ltd
Description: as §1, §2, §3, §4, §5, §6, §7, §8, §9, §10, §11, §12, §13, §14

OXA-10 = biological target: T7, OXA-10 (Pseudomonas aeruginosa, UniProt P14489); assay: Enzyme activity test (FC5 fluorescent substrate), OXA-10; format: biochemical; details: enzyme 350 pM, substrate FC5 50 μM
T7 construct: purchased GenScript Biotech Co., Ltd
Description: as §1, §2, §3, §4, §5, §6, §7, §8, §9, §10, §11, §12, §13, §14

KPC-2 = biological target: T8, KPC-2 (Klebsiella pneumoniae, UniProt Q9F663); assay: Enzyme activity test (FC5 fluorescent substrate), KPC-2; format: biochemical; details: enzyme 45 pM, substrate FC5 25 μM
T8 construct: purchased GenScript Biotech Co., Ltd
Description: as §1, §2, §3, §4, §5, §6, §7, §8, §9, §10, §11, §12, §13, §14

IMP-1 = biological target: T9, IMP-1 (Serratia marcescens, UniProt P52699); assay: Enzyme activity test (FC5 fluorescent substrate), IMP-1; format: biochemical; details: enzyme 20 pM, substrate FC5 15 μM
T9 construct: purchased GenScript Biotech Co., Ltd
Description: as §1, §2, §3, §4, §5, §6, §7, §8, §9, §10, §11, §12, §13, §14

NDM-5 = NDM-5 (Klebsiella pneumoniae, UniProt C7C422, M154L/V88L); assay: Enzyme activity test (FC5 fluorescent substrate), NDM-5; format: biochemical
Description: as §1, §2, §3, §4, §5, §6, §7, §8
e) The 384-well plate was centrifuged quickly and incubated for 10 minutes at room temperature. […]
as §11, §12
Initial velocity of enzyme reaction V: Subtract the background reading (Min wells) without enzyme from each fluorescence intensity reading, and then perform on a linear regression analysis on each compound concentration group. […]
as §14

[1] = system: Acinetobacter baumannii ARLG-1809 OXA-23; assay: MIC test of compounds in combination with antibiotics, Acinetobacter baumannii ARLG-1809
[2] = system: Escherichia coli ARLG 2829; assay: MIC test of compounds in combination with antibiotics, Escherichia coli ARLG 2829
[3] = system: Acinetobacter baumannii WX-AB013; assay: MIC test of compounds in combination with antibiotics, Acinetobacter baumannii WX-AB013
[4] = system: Klebsiella pneumoniae ATCC BAA-2470; assay: MIC test of compounds in combination with antibiotics, Klebsiella pneumoniae ATCC BAA-2470
Description: (§15) Strain preparation: the strains to be tested were streaked from glycerol tube at −80° C. onto Mueller Hinton II Agar plates. The plates were then placed in a 37° C. incubator and cultured for 18-24 hours.
(§16) Media preparation: CAMHB (Mueller Hinton II Broth): 22 g of powder was dissolved in 1 L of purified water and sterilized at 121° C. for 10 min for use. Saline: 8.5 g NaCl was dissolved in 1 L of pure water and sterilized at 121° C. for 30 min for use.
(§17) Preparation of compound and antibiotic stock solutions: the compound and antibiotic were dissolved in DMSO or water to 12.8 mg/mL.
(§18) 2-Fold gradient dilution of antibiotics: 300 μL of CAMHVIB medium was added to columns 2-12 of a 96-deep well plate. In column 1, 24 μL of antibiotic stock solution and 576 µL of CAMHB medium were added and mixed well, with a concentration of 512 μg/mL. 300 µL of antibiotic solution was transferred from the column 1 to the second column and mixed well. The process was repeated until column 11, and the column 12 was a blank control.
(§19) Dilution of combined compounds: the compound was diluted 400-fold to 32 μg/ml with CAMHB medium.
(§20) Working solution aliquoting: 25 μL of antibiotics was aliquoted into the 96-U bottom plate with a pipette, and 25 μL of combined compound was added to each well. If antibiotics were used alone, 25 μL of CAMHB medium was added.
(§21) Inoculum solution preparation: 5-6 single colonies were selected from the plate and suspended in normal saline. The bacterial suspension was adjusted to 0.2 (i.e., 0.5 McFarland turbidity, with a bacterial concentration was about 1 to 2×10^8 CFU/mL) with a turbidity meter. The bacterial suspension was diluted 100-fold with CAMHB medium for later use.
(§22) Inoculation: 50 μL of inoculum solution was transferred to the above 50 μL compound plate with a pipette.
(§23) Culture: The 96-U bottom plate was placed in an incubator at 37° C. for 18 to 20 h.
(§24) After the incubation, bacterial growth was visually observed, and the test plate was photographed and recorded.

[5] = system: Klebsiella pneumoniae ATCC BAA-1705; assay: MIC test of compounds in combination with antibiotics, Klebsiella pneumoniae ATCC BAA-1705
Description: as §15, §16, §17, §18, §19, §20, §21, §22, §23, §24

[6] = system: Acinetobacter baumannii ARLG-1853 OXA-23; assay: MIC test of compounds in combination with antibiotics, Acinetobacter baumannii ARLG-1853
Description: as §18, §19, §20, §21, §22, §23

[7] = system: Acinetobacter baumannii ARLG-1852 OXA-23; assay: MIC test of compounds in combination with antibiotics, Acinetobacter baumannii ARLG-1852
Description: as §18, §19, §20, §21, §22, §23

[8] = system: Acinetobacter baumannii ARLG-1791 OXA-23; assay: MIC test of compounds in combination with antibiotics, Acinetobacter baumannii ARLG-1791
Description: as §18, §19, §20, §21, §22, §23

[9] = system: Acinetobacter baumannii WX-AB005; assay: MIC test of compounds in combination with antibiotics, Acinetobacter baumannii WX-AB005
[10] = system: Klebsiella pneumoniae ARLG 1196; assay: MIC test of compounds in combination with antibiotics, Klebsiella pneumoniae ARLG 1196
Description: as §15, §16, §17, §18, §19, §20, §21, §22, §23, §24

[11] = system: Acinetobacter baumannii ARLG-1809 OXA-23; assay: MIC test of compounds in combination with antibiotics, Acinetobacter baumannii ARLG-1809; details: Acinetobacter baumannii, ARLG1809OXA23
Description: as §18, §19, §20, §21, §22, §23

[12] = system: Acinetobacter baumannii ARLG-1791 OXA-23; assay: MIC test of compounds in combination with antibiotics, Acinetobacter baumannii ARLG-1791; details: Acinetobacter baumannii, ARLG1791OXA23
Description: as §18, §19, §20, §21, §22, §23

[13] = system: Acinetobacter baumannii ARLG-1852 OXA-23; assay: MIC test of compounds in combination with antibiotics, Acinetobacter baumannii ARLG-1852; details: Acinetobacter baumannii, ARLG1852OXA23
Description: as §18, §19, §20, §21, §22, §23

[14] = system: Acinetobacter baumannii WX-AB005; assay: MIC test of compounds in combination with antibiotics, Acinetobacter baumannii WX-AB005; details: Acinetobacter baumannii, WXAB005
Description: as §18, §19, §20, §21, §22, §23

[15] = system: Acinetobacter baumannii ARLG-1853 OXA-23; assay: MIC test of compounds in combination with antibiotics, Acinetobacter baumannii ARLG-1853; details: Acinetobacter baumannii, ARLG1853OXA23
Description: as §18, §19, §20, §21, §22, §23

[16] = system: Acinetobacter baumannii WX-AB013; assay: MIC test of compounds in combination with antibiotics, Acinetobacter baumannii WX-AB013; details: Acinetobacter baumannii, WXAB013
Description: as §18, §19, §20, §21, §22, §23

T8 sequence (Q9F663 25-293 limits assumed): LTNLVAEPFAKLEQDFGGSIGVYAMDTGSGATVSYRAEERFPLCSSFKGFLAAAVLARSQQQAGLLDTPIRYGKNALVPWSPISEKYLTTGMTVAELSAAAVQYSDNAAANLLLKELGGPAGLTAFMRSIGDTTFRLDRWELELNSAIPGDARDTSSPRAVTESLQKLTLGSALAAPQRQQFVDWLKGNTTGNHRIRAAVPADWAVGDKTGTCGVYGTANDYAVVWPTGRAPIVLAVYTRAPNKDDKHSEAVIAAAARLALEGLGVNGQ
T7 sequence (P14489 20-266): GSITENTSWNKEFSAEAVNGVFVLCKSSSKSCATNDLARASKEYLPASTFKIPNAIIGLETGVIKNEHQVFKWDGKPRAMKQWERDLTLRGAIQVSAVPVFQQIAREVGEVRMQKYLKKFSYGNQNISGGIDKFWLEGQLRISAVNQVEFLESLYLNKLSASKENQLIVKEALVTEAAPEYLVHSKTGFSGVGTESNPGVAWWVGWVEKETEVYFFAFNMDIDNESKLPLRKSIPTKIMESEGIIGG
T3 sequence (Q6XEC0 23-265 limits assumed): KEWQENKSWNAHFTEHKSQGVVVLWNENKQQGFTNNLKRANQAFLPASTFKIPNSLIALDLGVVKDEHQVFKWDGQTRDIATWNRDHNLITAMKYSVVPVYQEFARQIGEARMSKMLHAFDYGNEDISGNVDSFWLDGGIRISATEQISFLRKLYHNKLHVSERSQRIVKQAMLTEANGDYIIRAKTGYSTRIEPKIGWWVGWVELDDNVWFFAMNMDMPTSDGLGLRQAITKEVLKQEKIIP
Sequence of NDM-5 (C7C422 29-270 V88L/M154L): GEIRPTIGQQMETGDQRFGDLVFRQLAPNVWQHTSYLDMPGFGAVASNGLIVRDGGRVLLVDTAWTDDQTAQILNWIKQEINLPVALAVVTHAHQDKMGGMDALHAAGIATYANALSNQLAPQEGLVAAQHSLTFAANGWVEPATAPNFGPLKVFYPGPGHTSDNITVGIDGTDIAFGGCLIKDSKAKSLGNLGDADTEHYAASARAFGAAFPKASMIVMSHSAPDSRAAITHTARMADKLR
T1 sequence (Q9EXV5 entry or part of it): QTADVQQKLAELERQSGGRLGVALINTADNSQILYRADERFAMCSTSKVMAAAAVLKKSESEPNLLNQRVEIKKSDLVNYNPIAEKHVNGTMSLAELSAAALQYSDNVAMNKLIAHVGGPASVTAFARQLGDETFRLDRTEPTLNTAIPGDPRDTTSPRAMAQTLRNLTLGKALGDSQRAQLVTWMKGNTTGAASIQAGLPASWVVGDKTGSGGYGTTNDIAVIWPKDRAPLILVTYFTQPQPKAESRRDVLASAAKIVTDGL
T5 sequence (C7C422 29-270 limits assumed): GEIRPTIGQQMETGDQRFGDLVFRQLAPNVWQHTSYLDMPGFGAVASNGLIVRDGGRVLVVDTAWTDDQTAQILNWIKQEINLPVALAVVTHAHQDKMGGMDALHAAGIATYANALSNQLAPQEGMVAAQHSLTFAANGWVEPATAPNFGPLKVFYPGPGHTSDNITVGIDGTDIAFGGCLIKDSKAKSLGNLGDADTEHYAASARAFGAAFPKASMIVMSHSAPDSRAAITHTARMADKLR
T4 sequence (Q9L4P2 18-273): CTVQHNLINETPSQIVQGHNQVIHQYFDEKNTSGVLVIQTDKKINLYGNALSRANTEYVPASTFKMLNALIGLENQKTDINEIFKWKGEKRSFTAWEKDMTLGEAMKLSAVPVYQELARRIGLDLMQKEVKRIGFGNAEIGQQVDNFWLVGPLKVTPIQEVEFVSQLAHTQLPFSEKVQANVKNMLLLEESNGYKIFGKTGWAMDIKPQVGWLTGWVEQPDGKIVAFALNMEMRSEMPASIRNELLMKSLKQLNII
T9 sequence (P52699 19-246 limits assumed): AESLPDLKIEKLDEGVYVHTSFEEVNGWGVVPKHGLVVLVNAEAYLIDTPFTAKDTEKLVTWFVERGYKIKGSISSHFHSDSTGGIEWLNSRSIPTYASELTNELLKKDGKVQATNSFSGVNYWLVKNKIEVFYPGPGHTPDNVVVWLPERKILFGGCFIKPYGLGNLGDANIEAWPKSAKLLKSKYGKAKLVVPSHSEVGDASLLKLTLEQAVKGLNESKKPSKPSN

CC(C)Sc1ccc2c(c1C(=O)O)OB(O)[C@@H]1C[C@H]21 [Compound 2]
IC50 (Ampc): 42.7 nM
IC50 (CTX-M-15): 3.2 nM
IC50 (VIM-1): 0.1 nM
IC50 (OXA-48): 0.4 nM
IC50 (OXA-23): 0.6 nM
IC50 (NDM-1): 1.6 nM
IC50 (VIM-2): 0.1 nM
IC50 (OXA-10): 6.8 nM
IC50 (KPC-2): 3.3 nM
IC50 (IMP-1): < 5.1 nM
IC50 (NDM-5): 2.9 nM

C[C@H](Sc1ccc2c(c1C(=O)O)OB(O)[C@@H]1C[C@H]21)C1CN(C)C1 [Compound 20-a]
MIC of biapenem in combination with compound, Acinetobacter baumannii ARLG-1809 OXA-23 ([1]; Biapenem + compound (8 μg/mL)): 0.5 µg/mL
MIC of meropenem in combination with compound, Acinetobacter baumannii ARLG-1809 OXA-23 ([1]; Meropenem + compound (8 μg/mL)): 2 µg/mL
MIC of biapenem in combination with compound, Escherichia coli ARLG-2829 NDM-5, OXA-1 ([2]; Biapenem + compound (8 μg/mL)): 0.25 µg/mL
MIC of meropenem in combination with compound, Escherichia coli ARLG-2829 NDM-5, OXA-1 ([2]; Meropenem + compound (8 μg/mL)): 16 µg/mL
MIC of biapenem in combination with compound, Acinetobacter baumannii WX-AB013 ([3]; Biapenem + compound (8 μg/mL)): 0.5 µg/mL
MIC of meropenem in combination with compound, Acinetobacter baumannii WX-AB013 ([3]; Meropenem + compound (8 μg/mL)): 2 µg/mL
MIC of biapenem in combination with compound, Klebsiella pneumoniae ATCC BAA-2470 NDM-1 ([4]; Biapenem + compound (8 μg/mL)): ≤0.125 µg/mL
MIC of meropenem in combination with compound, Klebsiella pneumoniae ATCC BAA-2470 NDM-1 ([4]; Meropenem + compound (8 μg/mL)): 4 µg/mL
MIC of biapenem in combination with compound, Klebsiella pneumoniae ATCC BAA-1705 KPC-2 ([5]; Biapenem + compound (8 μg/mL)): 0.5 µg/mL
MIC of meropenem in combination with compound, Klebsiella pneumoniae ATCC BAA-1705 KPC-2 ([5]; Meropenem + compound (8 μg/mL)): ≤0.125 µg/mL
MIC of biapenem in combination with compound, Acinetobacter baumannii ARLG-1853 OXA-23 ([6]; Biapenem + compound (8 μg/mL)): 0.25 µg/mL
MIC of meropenem in combination with compound, Acinetobacter baumannii ARLG-1853 OXA-23 ([6]; Meropenem + compound (8 μg/mL)): 2 µg/mL
MIC of biapenem in combination with compound, Acinetobacter baumannii ARLG-1852 OXA-23 ([7]; Biapenem + compound (8 μg/mL)): 0.25 µg/mL
MIC of meropenem in combination with compound, Acinetobacter baumannii ARLG-1852 OXA-23 ([7]; Meropenem + compound (8 μg/mL)): 2 µg/mL
MIC of biapenem in combination with compound, Acinetobacter baumannii ARLG-1791 OXA-23 ([8]; Biapenem + compound (8 μg/mL)): 0.25 µg/mL
MIC of meropenem in combination with compound, Acinetobacter baumannii ARLG-1791 OXA-23 ([8]; Meropenem + compound (8 μg/mL)): 2 µg/mL
MIC of biapenem in combination with compound, Acinetobacter baumannii WX-AB005 ([9]; Biapenem + compound (8 μg/mL)): 2 µg/mL
MIC of meropenem in combination with compound, Acinetobacter baumannii WX-AB005 ([9]; Meropenem + compound (8 μg/mL)): 4 µg/mL
MIC of biapenem in combination with compound, Klebsiella pneumoniae ARLG-1196 CTM-1 group, SHV, NDM, TEM ([10]; Biapenem + compound (8 μg/mL)): ≤0.125 µg/mL
MIC of meropenem in combination with compound, Klebsiella pneumoniae ARLG-1196 CTM-1 group, SHV, NDM, TEM ([10]; Meropenem + compound (8 μg/mL)): 2 µg/mL

C[C@@H](O)[C@H]1C(=O)N2C(C(=O)O)=C(S[C@@H]3CN[C@H](C(=O)N(C)C)C3)[C@H](C)[C@H]12 [Meropenem]
MIC [11]: 32 µg/mL
MIC [12]: > 128 µg/mL
MIC [13]: 128 µg/mL
MIC [14]: > 128 µg/mL
MIC ([2]; Escherichia coli, ARLG2829): > 128 µg/mL
MIC [15]: 128 µg/mL
MIC [16]: 64 µg/mL
MIC ([4]; Klebsiella pneumoniae, ATCCBAA2470): 128 µg/mL
MIC ([5]; Klebsiella pneumoniae, ATCCBAA1705): 128 µg/mL
MIC ([10]; Klebsiella pneumoniae, ARLG1196): 128 µg/mL
